Laboratory results as given in the supplement of paper PMC10307832.

Legend:
Assay in all cases: relative viability (nuclei count vs DMSO), 5 days (fraction); higher = more cells survive
Bexarotene + Alpelisib = compound: C=C(c1ccc(C(=O)O)cc1)c1cc2c(cc1C)C(C)(C)CCC2(C)C [Bexarotene] + Cc1nc(NC(=O)N2CCC[C@H]2C(N)=O)sc1-c1ccnc(C(C)(C)C(F)(F)F)c1 [Alpelisib] (partner 2 µM)
Procedure, shortened: (§1)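 After 5 days of treatment, lung cancer cells in 1536-well plates were fixed and stained in a single step (final 0.05% Triton X-100, 1% formaldehyde, 1 ug/ml Hoechst) and their nuclei counted on 4× images. Treatment had been applied by pin tool the day after seeding as one drug alone or as a fixed anchor-drug dose with five library-drug doses (not always all listed) in √10 steps. Relative viability is the nuclei count of treated wells divided by that of vehicle wells, and values are medians of duplicate plates.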

Bexarotene + Lapatinib = compound: C=C(c1ccc(C(=O)O)cc1)c1cc2c(cc1C)C(C)(C)CCC2(C)C [Bexarotene] + CS(=O)(=O)CCNCc1ccc(-c2ccc3ncnc(Nc4ccc(OCc5cccc(F)c5)c(Cl)c4)c3c2)o1 [Lapatinib] (partner 2 µM)
Procedure, shortened: as §1

Bexarotene + Linsitinib = compound: C=C(c1ccc(C(=O)O)cc1)c1cc2c(cc1C)C(C)(C)CCC2(C)C [Bexarotene] + C[C@]1(O)C[C@@H](c2nc(-c3ccc4ccc(-c5ccccc5)nc4c3)c3c(N)nccn32)C1 [Linsitinib] (partner 1 µM)
Procedure, shortened: as §1

Bexarotene + OSI-027 = compound: C=C(c1ccc(C(=O)O)cc1)c1cc2c(cc1C)C(C)(C)CCC2(C)C [Bexarotene] + COc1cccc2cc(-c3nc([C@H]4CC[C@H](C(=O)O)CC4)n4ncnc(N)c34)[nH]c12 [OSI-027] (partner 0.5 µM)
Procedure, shortened: as §1

Cell Line	relative viability (Bexarotene + Alpelisib; first compound 0.08 µM)	relative viability (Bexarotene + Alpelisib; first compound 0.253 µM)	relative viability (Bexarotene + Alpelisib; first compound 0.8 µM)	relative viability (Bexarotene + Alpelisib; first compound 2.53 µM)	relative viability (Bexarotene + Alpelisib; first compound 8 µM)	relative viability (Bexarotene + Lapatinib; first compound 0.08 µM)	relative viability (Bexarotene + Lapatinib; first compound 0.253 µM)	relative viability (Bexarotene + Lapatinib; first compound 0.8 µM)	relative viability (Bexarotene + Lapatinib; first compound 2.53 µM)	relative viability (Bexarotene + Lapatinib; first compound 8 µM)	relative viability (Bexarotene + Linsitinib; first compound 0.08 µM)	relative viability (Bexarotene + Linsitinib; first compound 0.253 µM)	relative viability (Bexarotene + Linsitinib; first compound 0.8 µM)	relative viability (Bexarotene + Linsitinib; first compound 2.53 µM)	relative viability (Bexarotene + Linsitinib; first compound 8 µM)	relative viability (Bexarotene + OSI-027; first compound 0.08 µM)	relative viability (Bexarotene + OSI-027; first compound 0.253 µM)	relative viability (Bexarotene + OSI-027; first compound 0.8 µM)	relative viability (Bexarotene + OSI-027; first compound 2.53 µM)	relative viability (Bexarotene + OSI-027; first compound 8 µM)
HCC-78	0.315	0.268	0.28	0.25	0.259	0.724	0.7	0.591	0.637	0.668	0.524	0.461	0.44	0.374	0.392	0.389	0.325	0.331	0.34	0.399
HCC-366	0.529	0.408	0.411	0.489	0.463	0.984	1.06	1.06	1.04	1.06	1.1	0.781	0.774	0.715	0.635	1.2	0.968	0.974	0.888	0.913
HCC-827	1.05	0.844	0.969	1.04	0.917	0.274	0.159	0.185	0.196	0.196	1.01	0.966	0.896	0.906	0.854	0.843	0.739	0.715	0.867	0.74
HOP-62	1.35	1.4	1.03	1.12	0.917	1.02	1.09	0.943	1.14	1.1	1.01	1.17	1.15	1.02	0.909	0.92	0.841	0.847	0.803	0.802
IA-LM	0.771	0.702	0.67	0.581	0.669	–	0.773	0.68	0.536	0.694	0.682	0.581	0.523	0.603	0.51	–	–	–	–	–
LC-2-ad	0.872	1.15	0.762	0.96	0.861	0.993	1.09	1.07	0.994	0.997	0.88	0.94	0.742	0.786	0.881	0.894	0.944	0.779	0.8	0.881
LCLC-97TM1	0.333	0.285	0.274	0.264	0.263	1.05	1.2	1.39	1.15	1.19	0.185	0.193	0.185	0.207	0.224	0.427	0.54	0.598	0.561	0.515
LCLC-103H	1.03	0.968	1.04	1.09	0.993	–	–	–	–	–	1.24	1.15	1	1.06	1.14	0.522	0.434	0.354	0.461	0.448
